Measured values as given in patent US11530244B2, “Cyclic polypeptides for PCSK9 inhibition” (priority 2018, dated 2022).
Starred links: 1 amine or outer side, 2 acyl side, 3 side chain; linkers in the order of their positions; H or OH if unused. Positions of bridges follow the written chain, without caps; N, C: chain ends. Non-standard residues stand in square brackets, D forms with d. Residues, ends and D or L forms follow the SMILES beside them. Groups on a side chain read outwards from the residue. *: point of attachment. X1 = O=C1CC[C@@H](C(=O)[*:1])N1CCCSCc1cccc(C[*:2])c1; Trp(5-F) = N[C@@H](Cc1c[nH]c2ccc(F)cc12)C(=O)O; X49 = NCCCC[C@H](N[*:1])c1nc(C(=O)[*:2])co1; Pro(cis-4-F) = O=C(O)[C@@H]1C[C@H](F)CN1; γGlu = O=C(O)[C@H](CCC(=O)[*:2])N[*:1]; mXylylene = c1cc(C[*:1])cc(C[*:2])c1; AEF = NCCOc1ccc(C[C@H](N)C(=O)O)cc1; Palmitoyl = CCCCCCCCCCCCCCCC(=O)*; X46 = O=C(C[*:2])NCCCCC(=O)[*:1]; X44 = O=C(C[*:2])NCCCC(=O)[*:1]; αMeP = C[C@@]1(C(=O)O)CCCN1; AEEA = NCCOCCOCC(=O)O; X37 = O=C(CC1CC1)*; Mpa = O=C(O)CCS

Tests used:
[1] = molecular target: T1, PCSK9 (Homo sapiens (Human), UniProt Q8NBP7); assay: PCSK9 Alexa FRET Plus assay (displacement of AlexaFluor647 tagged cyclic peptide Reagent B); type: binding; conditions: Alexa FRET Plus, 0.5 nM PCSK9, 960 nM AF cyclic peptide Reagent B; read-out: IC50
T1 sequence (Q8NBP7 153-692): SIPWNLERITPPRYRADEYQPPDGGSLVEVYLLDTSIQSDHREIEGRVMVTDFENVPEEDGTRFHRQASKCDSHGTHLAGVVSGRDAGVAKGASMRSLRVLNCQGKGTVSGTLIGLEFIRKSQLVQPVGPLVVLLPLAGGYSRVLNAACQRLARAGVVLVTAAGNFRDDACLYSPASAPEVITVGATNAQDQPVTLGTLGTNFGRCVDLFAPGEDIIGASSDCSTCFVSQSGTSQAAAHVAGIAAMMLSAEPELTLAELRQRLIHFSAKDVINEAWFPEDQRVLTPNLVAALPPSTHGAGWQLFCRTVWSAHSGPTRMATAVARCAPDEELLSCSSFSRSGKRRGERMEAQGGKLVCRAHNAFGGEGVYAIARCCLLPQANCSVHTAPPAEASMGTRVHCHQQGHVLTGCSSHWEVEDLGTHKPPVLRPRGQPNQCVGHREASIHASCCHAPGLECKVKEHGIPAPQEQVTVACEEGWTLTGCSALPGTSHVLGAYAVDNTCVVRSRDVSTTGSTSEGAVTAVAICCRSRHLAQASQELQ
Method: A solution containing 1 nM biotinylated PCSK9+2.5 nM Lance Streptavidin Europium (Strep-Eu) was made in 50 mM HEPES pH 7.4, 0.15 M NaCl, 5 mM CaCl2), 0.01% BSA, and 0.01% Surfactant P20. A separate solution containing 1920 nM of the AlexaFluor tagged cyclic peptide was made in the same buffer system. An Echo was used to transfer 0.075 ul of compound plus 0.675 ul of DMSO to each well of an assay plate followed by the addition of 15 ul of PCSK9+Stept-Eu and 15 ul of AF peptide. The final assay volume was 30.750 ul containing 0.5 nM PCSK9, 1.25 nM Strep-Eu, and 960 nM AF cyclic peptide. The reaction was incubated at room temperature for at least two hours prior to fluorescence measurements using an Envision Multilabel Reader. IC50 values were determined by fitting data to a sigmoidal dose-response curve using nonlinear regression. Ki was then calculated from the IC50 and the KD of AF cyclic peptide. Counts (B-counts) of the europium-labeled PCSK9 were followed to observe if compounds were adversely affecting PCSK9. A fall off of the B-counts likely indicated a false positive of inhibition. Data from this procedure was reported as “P=‘numerical value’ (nanomolar)”

[2] = molecular target: T1, PCSK9; assay: PCSK9 Alexa FRET Standard assay (displacement of AlexaFluor647 tagged cyclic peptide Reagent A); type: binding; conditions: PCSK9 Alexa FRET Standard assay, 0.5 nM PCSK9, 20 nM AF cyclic peptide Reagent A; read-out: IC50
How it was run: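 TR-FRET displacement: 0.5 nM biotinylated PCSK9 with 1.25 nM Strep-Eu and 20 nM AlexaFluor-tagged cyclic peptide (final) in 50 mM HEPES pH 7.4, 0.15 M NaCl, 5 mM CaCl2, 0.01% BSA, 0.01% P20, ≥2 h at room temperature. IC50 from sigmoidal fit, converted to Ki via peptide KD; falling Eu counts flagged false positives.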

Row | SMILES | IC50 [1] [nM] | IC50 [2] [nM]
1 | COc1ccc(C[C@@H]2NC(=O)[C@H]([C@@H](C)O)NC(=O)[C@@H]3C[C@H](F)CN3C(=O)[C@H](Cc3c[nH]c4ccc(F)cc34)NC(=O)[C@H](Cc3c[nH]c4ccc(F)cc34)NC(=O)[C@@H](C)NC(=O)[C@H](CCCCN)NC(=O)CCCCNC(=O)COc3ccc(cc3)C[C@@H](C(N)=O)NC(=O)[C@]3(C)CCCN3C2=O)cc1 [Compound 117] (K[dA][Trp(5-F)][Trp(5-F)][Pro(cis-4-F)]TY(Me)[αMeP]Y-NH2; linker N-9 via X46) | 500 to 5000 | 0.11 to 100
2 | C[C@@]12CCCN1C(=O)[C@H](Cc1ccc(O)cc1)NC(=O)[C@H](Cc1c[nH]cn1)NC(=O)[C@H](CC(=O)O)NC(=O)[C@H](Cc1c[nH]c3ccc(F)cc13)NC(=O)[C@H](Cc1c[nH]c3ccc(F)cc13)NC(=O)CNC(=O)[C@@H]1CCC(=O)N1CCCSCc1cccc(c1)CSC[C@@H](C(N)=O)NC2=O [Compound 481] (G[Trp(5-F)][Trp(5-F)]DHY[αMeP]C-NH2; linker N-8 via X1) | 500 to 5000 | 1000 to 12100
3 | COc1ccc(C[C@@H]2NC(=O)[C@H]([C@@H](C)O)NC(=O)[C@@H]3C[C@H](F)CN3C(=O)[C@H](Cc3c[nH]c4ccc(F)cc34)NC(=O)[C@H](Cc3c[nH]c4ccc(F)cc34)NC(=O)[C@@H](C)NC(=O)[C@H](CCCCN)NC(=O)CCCNC(=O)COc3ccc(cc3)C[C@@H](C(N)=O)NC(=O)[C@]3(C)CCCN3C2=O)cc1 [Compound 092] (K[dA][Trp(5-F)][Trp(5-F)][Pro(cis-4-F)]TY(Me)[αMeP]Y-NH2; linker N-9 via X44) | 0.1 to 100 | 0.11 to 100
4 | CCCCCCCCCCCCCCCC(=O)N[C@@H](CCC(=O)NCCOCCOCC(=O)NCCOCCOCC(=O)NCCCC[C@@H]1NC(=O)[C@H](CCCCN)NC(=O)CCSCc2cccc(c2)CSC[C@@H](C(N)=O)NC(=O)[C@]2(C)CCCN2C(=O)[C@H](Cc2ccc(O)cc2)NC(=O)[C@H](Cc2cnc[nH]2)NC(=O)[C@H](CC(=O)O)NC(=O)[C@H](Cc2c[nH]c3ccc(F)cc23)NC(=O)[C@H](Cc2c[nH]c3ccc(F)cc23)NC1=O)C(=O)O [Compound 452] ([Mpa]KK([AEEA-AEEA-γGlu-Palmitoyl])[Trp(5-F)][Trp(5-F)]DHY[αMeP]C-NH2; linker 1-10 via mXylylene) | 0.1 to 100 | 0.11 to 100
5 | C[C@@]12CCCN1C(=O)[C@H](Cc1ccc(O)cc1)NC(=O)[C@H](Cc1c[nH]cn1)NC(=O)[C@H](CC(=O)O)NC(=O)[C@H](Cc1c[nH]c3ccc(F)cc13)NC(=O)[C@H](Cc1c[nH]c3ccc(F)cc13)NC(=O)c1coc(n1)[C@H](CCCCN)NC(=O)CCSCc1cccc(c1)CSC[C@@H](C(N)=O)NC2=O [Compound 477] ([Mpa][X49][Trp(5-F)][Trp(5-F)]DHY[αMeP]C-NH2; linker 1-9 via mXylylene) | 500 to 5000 | 1000 to 12100
6 | COc1ccc(C[C@@H]2NC(=O)[C@H]([C@@H](C)O)NC(=O)[C@@H]3C[C@H](F)CN3C(=O)[C@H](Cc3c[nH]c4ccc(F)cc34)NC(=O)[C@H](Cc3c[nH]c4ccc(F)cc34)NC(=O)[C@@H](C)NC(=O)[C@H](CCCCN)NC(=O)[C@@H](NC(C)=O)CCCCCc3ccc(cc3)C[C@@H](C(N)=O)NC(=O)[C@]3(C)CCCN3C2=O)cc1 [Compound 141] | 500 to 5000 | 100 to 1000
7 | COc1ccc(C[C@@H]2NC(=O)[C@H]([C@@H](C)O)NC(=O)[C@@H]3C[C@H](F)CN3C(=O)[C@H](Cc3c[nH]c4ccc(F)cc34)NC(=O)[C@H](Cc3c[nH]c4ccc(F)cc34)NC(=O)[C@@H](C)NC(=O)[C@H](CCCCN)NC(=O)[C@@H](NC(=O)CC3CC3)CC(=O)NCCOc3ccc(cc3)C[C@@H](C(N)=O)NC(=O)[C@]3(C)CCCN3C2=O)cc1 [Compound 108] (X37-DK[dA][Trp(5-F)][Trp(5-F)][Pro(cis-4-F)]TY(Me)[αMeP][AEF]-NH2; lactam 1-10) | 500 to 5000 | 0.11 to 100
8 | C[C@@]12CCCN1C(=O)[C@H](Cc1ccc(O)cc1)NC(=O)N[C@@H]1CCCc3ccc(cc31)C(=O)[C@H](Cc1c[nH]c3ccc(F)cc13)NC(=O)[C@H](Cc1c[nH]c3ccc(F)cc13)NC(=O)CNC(=O)[C@H](CCCCN)NC(=O)CCSCc1cccc(c1)CSC[C@@H](C(N)=O)NC2=O [Compound 140] | 100 to 500 | 0.11 to 100
